Source: publication PMC9385959, “Mammalian derived lipocalin and secretoglobin respiratory allergens strongly bind ligands with potentially immune modulating properties” (Frontiers in Allergy, 2022)
Several values for one entry are separate records, joined by “and”; a condition that tells them apart may be missing. Equal values may be shown once. Read-outs that look alike come from different tables or passages of the source.

Legend:
Fel d 1 = target: T1, Fel d 1 (Felis catus, UniProt P30438+P30440); test: Fluorochrome binding to Fel d 1 (emission spectra and titration); set-up: species or system cat; details: for Increase of fluorescence intensity upon binding: 5 μM Fel d 1 with 5 μM fluorochrome
T1 construct: polyhistidine tag (C); made in house; host or cells: E. coli Rosetta-gami 2
T1 sequence (P30438+P30440 with tags, fused parts or gaps): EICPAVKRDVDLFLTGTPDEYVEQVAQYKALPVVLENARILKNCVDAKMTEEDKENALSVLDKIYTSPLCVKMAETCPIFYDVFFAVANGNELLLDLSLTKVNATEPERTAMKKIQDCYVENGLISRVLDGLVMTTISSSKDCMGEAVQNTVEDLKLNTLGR
Protocol: (§1) Stock solutions were prepared at a concentration of 10 mM in 100% ethanol for the fluorochromes 1-aminoanthracene (1-AMA), 8-anilino-1-naphthalensulfonic acid (1,8-ANS) and for all ligands, and in 100% methanol for n-phenyl-1-naphthylamine (1-NPN), respectively. Iron catecholate ligands (siderophores) were prepared as previously described ([46]). Fluorochrome-protein complexes were analyzed at an equimolar concentration of 5 μM in PBS with 5% ethanol in a volume of 100 μL per well in black 96-well non-binding microplates (Greiner Bio-One GmbH, Frickenhausen, Germany). Solutions containing only protein or the respective fluorescent probe in PBS with 5% ethanol served as controls. Fluorochrome-protein complexes were incubated with orbital shaking for 10 min at 500 rpm at room temperature (RT) before measurement using the fluorescence reader TECAN Infinite 200 Pro (Tecan Trading AG, Switzerland). Excitation wavelengths were fixed at 380 nm for 1-AMA and 1,8-ANS, and 337 nm for 1-NPN. Fluorescence emission spectra were recorded in 5 nm steps between 420 and 560 nm for 1-AMA and 1,8-ANS and between 380 and 500 nm for 1-NPN. The establishment of fluorescent quenching assay parameters for each allergen is explained in the results Section Fluorescence-quenching assay set up. Binding affinities were analyzed by non-linear regression in GraphPad Prism Version 9.3.1 (GraphPad Software, LLC). For the ligand competition assays, ligands were added to fluorochrome-allergen complexes with a final buffer composition of 5% ethanol in PBS in a volume of 100 μL and incubated for 30 min at 500 rpm at RT and further equilibrated for another 30 min without shaking before fluorescence measurement.
(§2) We established four specific parameters for each allergen to set up a fluorescence quenching assay for screening a large array of potential ligands: (i) a compatible fluorochrome, (ii) the optimal emission wavelength to analyze the fluorescence intensities of the fluorochrome-allergen complex, (iii) the binding affinities of the fluorochrome-allergen complex (Kd values) and (iv) optimal fluorochrome concentrations (EC50 values).
(§3) For each allergen, we identified a suitable fluorescence probe by adding equimolar concentrations of either 1-AMA or 1,8-ANS to the recombinant proteins. […] 1-AMA was chosen for the guinea pig lipocalin Cav p 1 isoallergens, rabbit lipocalin Ory c 2, and rabbit secretoglobin Ory c 3. Fluorescence intensities increased 20–60-fold upon binding. While the emission maxima shifted from 565 to 485 nm for lipocalin fluorochrome-allergen pairs, the blue shift was less pronounced for the Ory c 3 secretoglobin-1-AMA complex to 505 nm (Figure 4B). […] Respective Kd were calculated after background subtraction (Figure 4B). As ethanol gave a high background with 1-NPN, these experiments were carried out with methanol to reduce the signal-to-noise-ratio.
(§4) We evaluated the binding affinities of the fluorochromes to the allergens by dose-dependent titration curves. Increasing fluorochrome concentrations were added to a fixed protein concentration of 5 μM until saturation (Figure 5). Fluorescence intensities were recorded at specific emission maxima for each fluorochrome-allergen complex, determined using the emission spectra shown in Figure 4. We analyzed the specific binding of fluorochrome-allergen complexes by non-linear regression and calculated equilibrium dissociation constants (Kd) and EC50 values (Table 2). EC50 values are equal to fluorochome concentrations in which half of the allergen binding sites are saturated and these concentrations were used in subsequent ligand competition assays. We chose a one-site specific binding model for all allergens, except for human LCN1, where multiple binding site analysis emerged as the model of best fit and two Kd values were calculated. Evidence for internal and external binding sites for 1,8-ANS and LCN1 were already reported ([58]).

Fel d 4 = target: T2, Fel d 4 (Felis catus, UniProt Q5VFH6); test: Fluorochrome binding to Fel d 4 (emission spectra and titration); set-up: species or system cat; details: for Increase of fluorescence intensity upon binding: 5 μM Fel d 4 with 5 μM fluorochrome
T2 construct: polyhistidine tag (C); made in house; host or cells: E. coli Rosetta-gami 2
T2 sequence (Q5VFH6 16-186): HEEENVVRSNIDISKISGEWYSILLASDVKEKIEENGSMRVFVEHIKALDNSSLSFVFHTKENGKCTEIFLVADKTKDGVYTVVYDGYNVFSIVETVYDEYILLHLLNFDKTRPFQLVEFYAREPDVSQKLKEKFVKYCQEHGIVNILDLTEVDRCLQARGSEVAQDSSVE
Protocol: as §1, §2, §3, §4

Can f 6 = target: T3, Can f 6 (Canis lupus familiaris, UniProt H2B3G5); test: Fluorochrome binding to Can f 6 (emission spectra and titration); set-up: species or system dog; details: for Increase of fluorescence intensity upon binding: 5 μM Can f 6 with 5 μM fluorochrome
T3 construct: polyhistidine tag (C); made in house; host or cells: E. coli Rosetta-gami 2
T3 sequence (H2B3G5 16-190): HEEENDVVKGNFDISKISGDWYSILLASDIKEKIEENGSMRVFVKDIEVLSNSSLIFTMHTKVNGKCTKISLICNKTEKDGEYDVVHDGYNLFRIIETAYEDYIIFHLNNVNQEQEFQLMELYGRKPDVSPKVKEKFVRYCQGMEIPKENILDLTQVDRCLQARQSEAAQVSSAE
Protocol: as §1, §2, §3, §4

Can f 1 = target: T4, Can f 1 (Canis lupus familiaris, UniProt O18873); test: Fluorochrome binding to Can f 1 (emission spectra and titration); set-up: species or system dog
T4 construct: made in house; host or cells: E. coli Rosetta-gami 2(DE3)
Protocol: as §1, with “measurement. […]” for “measurement.”
(§5) For each allergen, we identified a suitable fluorescence probe by adding equimolar concentrations of either 1-AMA or 1,8-ANS to the recombinant proteins. […] Fluorescence intensities increased 20–60-fold upon binding. […] Respective Kd were calculated after background subtraction (Figure 4B). […]
(§6) We evaluated the binding affinities of the fluorochromes to the allergens by dose-dependent titration curves. […]

human LCN1 = target: T5, human LCN1 (Homo sapiens, UniProt P31025); test: Fluorochrome binding to LCN1 (emission spectra and titration); details: for Kd: multiple binding site analysis
T5 construct: made in house; host or cells: E. coli Rosetta-gami 2(DE3)
Protocol: as §1, §2
as §3, with “As ethanol gave a high background with 1-NPN, these experiments were carried out with methanol to reduce the signal-to-noise-ratio.” left out
We evaluated the binding affinities of the fluorochromes to the allergens by dose-dependent titration curves. […] Fluorescence intensities were recorded at specific emission maxima for each fluorochrome-allergen complex, determined using the emission spectra shown in Figure 4. We analyzed the specific binding of fluorochrome-allergen complexes by non-linear regression and calculated equilibrium dissociation constants (Kd) and EC50 values (Table 2). […] We chose a one-site specific binding model for all allergens, except for human LCN1, where multiple binding site analysis emerged as the model of best fit and two Kd values were calculated. […]

Cav p 1.0101 = Cav p 1.0101 (Cavia porcellus, UniProt A0A484HM70, S19A); test: Fluorochrome binding to Cav p 1.0101 (emission spectra and titration); set-up: species or system guinea pig; details: 5 μM Cav p 1.0101
Protocol: as §1, with “For the ligand competition assays, ligands were added to fluorochrome-allergen complexes with a final buffer composition of 5% ethanol in PBS in a volume of 100 μL and incubated for 30 min at 500 rpm at RT and further equilibrated for another 30 min without shaking before fluorescence measurement.” left out

Cav p 1.0201 = Cav p 1.0201 (Cavia porcellus, UniProt A0A484HRI4); test: Fluorochrome binding to Cav p 1.0201 (emission spectra and titration); set-up: species or system guinea pig; details: 5 μM Cav p 1.0201
Protocol: as §1, with “For the ligand competition assays, ligands were added to fluorochrome-allergen complexes with a final buffer composition of 5% ethanol in PBS in a volume of 100 μL and incubated for 30 min at 500 rpm at RT and further equilibrated for another 30 min without shaking before fluorescence measurement.” left out

Ory c 2 = test: Fluorochrome binding to Ory c 2 (emission spectra and titration); set-up: species or system rabbit
Protocol: as §1, with “measurement. […]” for “measurement.”
as §5, §6

Ory c 3 = Ory c 3 (Oryctolagus cuniculus, UniProt Q9GK63+Q9GK67); test: Fluorochrome binding to Ory c 3 (emission spectra and titration); set-up: species or system rabbit; details: 5 μM Ory c 3
Protocol: as §1, with “For the ligand competition assays, ligands were added to fluorochrome-allergen complexes with a final buffer composition of 5% ethanol in PBS in a volume of 100 μL and incubated for 30 min at 500 rpm at RT and further equilibrated for another 30 min without shaking before fluorescence measurement.” left out

[1] = Thermal stability by circular dichroism spectroscopy with temperature ramping; assay type: physicochemical; details: temperature ramping 20–95°C, 10 μmol/L protein
Protocol: Secondary protein structure formation and thermal stability of the recombinant proteins were determined by circular dichroism (CD) spectroscopy. Recombinant proteins were diluted with ultrapure water to a concentration of 10 μmol/L in a volume of 300 μL to measure their CD spectra using the Chirascan CD spectrometer (Applied Photophysics). Far-ultraviolet CD spectra were recorded at 180–260 nm (0.8 nm bandwidth, 0.4 s interval, 3 repeats) in a cuvette of 0.1 cm path length. Thermal sensitivity was assessed by ramping temperatures (20–95°C) with an internal temperature probe and continuous CD-signal measurements (ramping rate 0.82°C per minute, no repeats). After 10 min at 95°C another CD spectrum was recorded with 3 repeats, then the temperature was decreased back to 20°C for a final scan with 3 repeats to analyze the refolding capacity. The read-out was converted with respective protein details, such as molecular weight and number of amino acids, into degrees^*cm2^*dmol−1. Chirascan Global 3 Analysis Software (Applied Photophysics) and DichroWeb online server ([36]) with solutions from the CDSSTR method and reference data set 7 ([37]) were used to analyze and interpret CD spectra, measured as a function of temperature.

[2] = one-site specific binding, read-out: Fluorochrome dissociation constant Kd
[3] = read-out: EC50 fluorochrome concentration

Sequence of Cav p 1.0101 (A0A484HM70 entry or part of it S19A): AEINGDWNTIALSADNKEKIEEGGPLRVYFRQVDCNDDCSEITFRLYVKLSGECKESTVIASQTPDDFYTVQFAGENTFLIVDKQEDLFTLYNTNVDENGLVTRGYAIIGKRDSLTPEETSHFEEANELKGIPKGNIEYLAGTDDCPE
T4 sequence (O18873 19-174): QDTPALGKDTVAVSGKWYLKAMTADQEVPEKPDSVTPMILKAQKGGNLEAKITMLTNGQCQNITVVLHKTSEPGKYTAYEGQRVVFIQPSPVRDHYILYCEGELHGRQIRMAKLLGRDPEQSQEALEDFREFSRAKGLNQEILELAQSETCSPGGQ
T5 sequence (P31025 19-176): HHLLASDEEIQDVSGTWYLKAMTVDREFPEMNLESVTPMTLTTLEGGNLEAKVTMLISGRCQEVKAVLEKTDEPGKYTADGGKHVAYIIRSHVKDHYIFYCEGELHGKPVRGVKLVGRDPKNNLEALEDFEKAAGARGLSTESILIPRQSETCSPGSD
Sequence of Cav p 1.0201 (A0A484HRI4 entry or part of it): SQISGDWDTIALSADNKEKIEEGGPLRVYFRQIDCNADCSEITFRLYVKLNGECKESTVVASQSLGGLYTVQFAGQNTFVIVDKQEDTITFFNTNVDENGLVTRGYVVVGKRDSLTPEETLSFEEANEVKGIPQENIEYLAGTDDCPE
Sequence of Ory c 3 (Q9GK67 entry or part of it): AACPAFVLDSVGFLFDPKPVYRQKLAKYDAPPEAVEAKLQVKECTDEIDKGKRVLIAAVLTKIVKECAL
Sequence of Ory c 3 (Q9GK63 entry or part of it): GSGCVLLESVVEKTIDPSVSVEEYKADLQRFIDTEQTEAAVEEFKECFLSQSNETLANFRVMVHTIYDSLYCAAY

In the case of `c1ccc(Nc2cccc3ccccc23)cc1` [1-NPN, n-phenyl-1-naphthylamine], the EC50 (Fel d 1) is reported as 21.1 µM, the Kd (Fel d 1) is reported as 35.5 µM and the “Increase of fluorescence intensity upon binding” value (“Increase” for short) (Fel d 1) is reported as 2–3 fold. For the same molecule, the Kd (Fel d 4; 5 μM Fel d 4, one-site specific binding, read-out: Fluorochrome dissociation constant Kd) was 81.7 µM, the EC50 (Fel d 4; 5 μM Fel d 4, read-out: EC50 fluorochrome concentration) was 28 µM and the “Increase” value (Fel d 4) was 2–3 fold. The Kd (Can f 6; 5 μM Can f 6, Figure 5C, read-out: Kd, one-site fit model of total and non-specific binding) was 59.9 µM, the Kd (Can f 6; 5 μM Can f 6, one-site specific binding, read-out: Fluorochrome dissociation constant Kd) was 34.9 µM and the EC50 (Can f 6; 5 μM Can f 6, read-out: EC50 fluorochrome concentration) was 20.7 µM. The “Increase” value (Can f 6) was 2–3 fold.
For `O=S(=O)(O)c1cccc2cccc(Nc3ccccc3)c12` [1,8-ANS, 8-anilino-1-naphthalensulfonic acid], the EC50 (Can f 1; 5 μM Can f 1, half of the allergen binding sites saturated, read-out: EC50 fluorochrome concentration) was 6.4 µM, the Kd (Can f 1; 5 μM Can f 1, one-site specific binding, read-out: Fluorochrome dissociation constant Kd) was 6.8 µM and the “Increase” value (Can f 1; 5 μM Can f 1 with 5 μM fluorochrome) was over 100 fold. The Kd (human LCN1; 5 μM LCN1, first binding site, read-out: Fluorochrome dissociation constant Kd) was 5 µM, the Kd (human LCN1; 5 μM LCN1, second binding site, read-out: Fluorochrome dissociation constant Kd, second binding site) was 64.7 µM and the EC50 (human LCN1; 5 μM LCN1, read-out: EC50 fluorochrome concentration) was 7.1 µM. The “Increase” value (human LCN1; 5 μM LCN1 with 5 μM fluorochrome) was over 100 fold, the “Kd at the second binding site relative to the first (higher Kd)” value (human LCN1; LCN1) was 13 fold and the Kd (Fel d 1; 5 μM Fel d 1, one-site specific binding, read-out: Fluorochrome dissociation constant Kd) was 149 µM. The EC50 (Fel d 1; 5 μM Fel d 1, read-out: EC50 fluorochrome concentration) was 99.8 µM, the “Increase” value (Fel d 1) was 8 fold and the “Increase” value (Fel d 4) was “neither reacted”. The “Increase” value (Can f 6) was “neither reacted”.
For `Nc1cccc2cc3ccccc3cc12` [1-AMA, 1-aminoanthracene], the Kd (Cav p 1.0101; [2]) was 6.57 µM and 6.6 µM, the EC50 (Cav p 1.0101; [3]) was 4.95 µM and 5 µM and the Kd (Cav p 1.0201; [2]) was 13.9 µM. It also gave an EC50 (Cav p 1.0201; [3]) of 9.2 µM, a Kd (Ory c 2; 5 μM Ory c 2, one-site specific binding, read-out: Fluorochrome dissociation constant Kd) of 5.7 µM and an EC50 (Ory c 2; 5 μM Ory c 2, read-out: EC50 fluorochrome concentration) of 4.2 µM. For the same molecule, the “Increase” value (Ory c 2; 5 μM Ory c 2 with 5 μM fluorochrome, range stated for four allergens together) was 20–60 fold, the Kd (Ory c 3; [2]) was 9 µM and the EC50 (Ory c 3; [3]) was 6.9 µM. The “Increase” value (Fel d 1) was “negligible interactions”, the “Increase” value (Fel d 4) was “neither reacted” and the “Increase” value (Can f 6) was “neither reacted”.
Work on “LCN1: recombinant human lipocalin-1 (tear lipocalin, von Ebner's gland protein), non-allergenic control, produced in E. coli” yielded a Melting point [1] of 74.8 ± 0.2 C°.
In the case of `CN(C)c1cccc2c(S(=O)(=O)NCCCCCCCCCCC(=O)O)cccc12` [DAUDA, 11-(Dansylamino)undecanoic acid], the “Increase” value (Fel d 4) is reported as “neither reacted” and the “Increase” value (Can f 6) is reported as “neither reacted”.
